This is an account of results in ChEMBL document CHEMBL4229367, “Identification of multi-target inhibitors of leukotriene and prostaglandin E2 biosynthesis by structural tuning of the FLAP inhibitor BRP-7” (Eur J Med Chem, 2018).

Experiment [1] has as its target T1, Polyunsaturated fatty acid 5-lipoxygenase (Homo sapiens, UniProt P09917).
T1 sequence (P09917 whole entry): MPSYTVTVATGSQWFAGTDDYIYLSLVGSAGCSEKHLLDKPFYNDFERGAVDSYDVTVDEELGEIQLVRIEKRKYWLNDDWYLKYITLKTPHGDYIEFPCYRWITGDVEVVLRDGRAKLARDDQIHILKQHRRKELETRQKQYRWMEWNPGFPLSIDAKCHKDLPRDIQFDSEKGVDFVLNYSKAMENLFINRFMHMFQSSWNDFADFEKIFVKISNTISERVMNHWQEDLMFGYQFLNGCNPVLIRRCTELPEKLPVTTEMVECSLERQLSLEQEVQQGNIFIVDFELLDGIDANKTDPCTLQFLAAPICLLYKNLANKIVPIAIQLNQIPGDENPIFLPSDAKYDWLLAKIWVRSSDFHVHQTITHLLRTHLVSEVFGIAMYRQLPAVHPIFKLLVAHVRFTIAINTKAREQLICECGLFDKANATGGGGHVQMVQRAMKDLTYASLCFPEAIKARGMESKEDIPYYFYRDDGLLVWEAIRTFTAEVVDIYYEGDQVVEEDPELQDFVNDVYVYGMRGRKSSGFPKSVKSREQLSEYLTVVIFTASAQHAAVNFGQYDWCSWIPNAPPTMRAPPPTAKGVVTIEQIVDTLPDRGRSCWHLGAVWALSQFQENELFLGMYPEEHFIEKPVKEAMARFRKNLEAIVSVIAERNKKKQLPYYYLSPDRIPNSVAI
The experiment in a line: Inhibition of recombinant human 5-LO expressed in Escherichia coli BL21 incubated for 15 mins prior to prewarming for 30 secs followed by CaCl2+ and arachidonic acid addition and measured after 10 mins by RP-HPLC analysis.

The target of experiment [2] is T2, Arachidonate 5-lipoxygenase-activating protein (Homo sapiens) (UniProt P20292).
T2 sequence (whole entry): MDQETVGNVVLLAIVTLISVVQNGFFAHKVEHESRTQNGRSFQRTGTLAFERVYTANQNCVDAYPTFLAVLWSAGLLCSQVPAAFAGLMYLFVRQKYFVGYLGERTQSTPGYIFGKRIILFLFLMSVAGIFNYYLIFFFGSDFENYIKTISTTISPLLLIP
The experiment in a line: Inhibition of FLAP in A23187-stimulated human neutrophils assessed as remaining enzyme activity by measuring 5-LO product formation at 0.1 uM preincubated for 15 mins followed by A23187 and arachidonic acid addition and measured after 10 mins by UV based RP-HPLC analysis (reference value: 100%).

Experiment [3] addresses T2, Arachidonate 5-lipoxygenase-activating protein (Homo sapiens). The experiment in a line: Inhibition of FLAP in A23187-stimulated human neutrophils assessed as remaining enzyme activity by measuring 5-LO product formation at 1 uM preincubated for 15 mins followed by A23187 and arachidonic acid addition and measured after 10 mins by UV based RP-HPLC analysis (reference value: 100%).

Experiment [4] addresses T3, Arachidonate 5-lipoxygenase-activating protein (Homo sapiens, UniProt P20292).
T3 sequence (P20292 whole entry): T2 sequence (whole entry)
As to the kind of experiment: Inhibition of FLAP in A23187-stimulated human neutrophils assessed as reduction in 5-LO product formation preincubated for 15 mins followed by A23187 and arachidonic acid addition and measured after 10 mins by UV based RP-HPLC analysis.

In experiment [5] the target is T4, Prostaglandin E synthase (Homo sapiens) (UniProt O14684).
T4 sequence (whole entry): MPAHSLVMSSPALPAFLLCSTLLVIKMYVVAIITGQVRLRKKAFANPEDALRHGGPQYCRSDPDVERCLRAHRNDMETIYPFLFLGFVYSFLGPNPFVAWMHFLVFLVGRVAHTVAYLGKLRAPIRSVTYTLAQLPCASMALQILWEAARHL
As to the kind of experiment: (§1) Inhibition of mPGES1 in IL-1beta-stimulated human A549 cell microsomal fractions assessed as reduction in PGE2 production preincubated for 15 mins followed by PGH2 substrate addition and measured after 1 min by RP-HPLC analysis relative to control.

Experiment [6] has as its target T5, Prostaglandin E synthase (Homo sapiens, UniProt O14684).
T5 sequence (O14684 whole entry): T4 sequence (whole entry)
The description is as §1.

In experiment [7] the target is T4, Prostaglandin E synthase (Homo sapiens). The experiment in a line: Inhibition of mPGES1 in IL-1beta-stimulated human A549 cell microsomal fractions assessed as reduction in PGE2 production at 3 uM preincubated for 15 mins followed by PGH2 substrate addition and measured after 1 min by RP-HPLC analysis relative to control.
In experiment [8] the target is T6, Leukotriene C4 synthase (Homo sapiens, UniProt Q16873).
T6 sequence (Q16873 whole entry): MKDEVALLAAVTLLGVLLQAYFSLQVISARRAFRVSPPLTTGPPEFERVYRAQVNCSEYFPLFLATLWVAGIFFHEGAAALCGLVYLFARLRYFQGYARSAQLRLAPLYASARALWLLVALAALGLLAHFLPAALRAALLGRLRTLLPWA
The experiment in a line: Inhibition of human LTC4 synthase expressed in HEK293 cell microsomes preincubated for 10 mins followed by LTA4-methyl ester addition and measured after 10 mins by UPLC-MS/MS analysis.

The target in experiment [9] is T2, Arachidonate 5-lipoxygenase-activating protein (Homo sapiens). The experiment in a line: Inhibition of FLAP in A23187-stimulated human neutrophils assessed as reduction in 5-LO product formation at 1 uM preincubated for 15 mins followed by A23187 and arachidonic acid addition and measured after 10 mins by UV based RP-HPLC analysis.
Experiment [10] has as its target T7, Polyunsaturated fatty acid 5-lipoxygenase (Homo sapiens) (UniProt P09917).
T7 sequence (whole entry): T1 sequence (P09917 whole entry)
To be noted: 0.3 uM.
Description: Inhibition of recombinant human 5-LO expressed in Escherichia coli BL21 at 0.3 uM incubated for 15 mins prior to prewarming for 30 secs followed by CaCl2+ and arachidonic acid addition and measured after 10 mins by RP-HPLC analysis

The target of experiment [11] is T3, Arachidonate 5-lipoxygenase-activating protein. As to the kind of experiment: Inhibition of FLAP in A23187-stimulated human monocytes assessed as reduction in 5-LO product formation preincubated for 15 mins followed by A23187 and arachidonic acid addition and measured after 10 mins by UV based RP-HPLC analysis. The format is cell-based.
The target of experiment [12] is T1, Polyunsaturated fatty acid 5-lipoxygenase. The experiment in a line: Inhibition of 5-LO in A23187-stimulated human neutrophils assessed as reduction in 5-LO product formation preincubated for 15 mins followed by A23187 and 10 uM arachidonic acid addition and measured after 10 mins by UV based RP-HPLC analysis.
Experiment [13] has as its target T6, Leukotriene C4 synthase. The experiment in a line: Inhibition of LTC4 synthase in LPS/fMLP-stimulated human monocytes assessed as decrease in cys-LT formation pre-incubated with LPS for 30 mins and later stimulated with fMLP for 10 mins by ELISA. The format is cell-based.
Experiment [14] concerns the target T7, Polyunsaturated fatty acid 5-lipoxygenase (Homo sapiens). The experiment in a line: Inhibition of recombinant human 5-LO expressed in Escherichia coli BL21 at 10 uM incubated for 15 mins prior to prewarming for 30 secs followed by CaCl2+ and arachidonic acid addition and measured after 10 mins by RP-HPLC analysis.

As a reminder, the IC50 is the midpoint of a concentration-inhibition curve. By inhibition is commonly meant how much of the control response was suppressed. For `CC(C)Cc1ccc(C(C)c2nc3cc(-c4ccc(C(=O)O)cc4)ccc3n2Cc2ccccc2Cl)cc1` (stereo not given), the IC50 in experiment [1] turned out to be 3200 nM; in experiment [4], 40 nM; in experiment [6], 2100 nM; in experiment [8] it was 15900 nM. The results for the Activity in experiment [2] and in experiment [3] were 3.73% and 0%, respectively. Also, the figures for the inhibition entry in [5] and in experiment [7] were “Dose-dependent effect” and greater than 50%, respectively.
`CC(C)Cc1ccc(C(C)c2nc3cc(-c4n[nH]c(=S)o4)ccc3n2Cc2ccccc2Cl)cc1` (stereo not given): the IC50 in experiment [1] came to 600 nM; in [4], 50 nM; in experiment [6], 420 nM; in experiment [8] it was 6190 nM. Also, the Activity in experiment [2] amounted to 41.4%; in experiment [3], 0%. Besides, the results for the inhibition result in [5] and in experiment [7] were “Dose-dependent effect” and greater than 50%, respectively.
With `CC(C)Cc1ccc(C(C)c2nc3c(CC(=O)O)cccc3n2Cc2ccccc2Cl)cc1` (stereo not given), the results for the Activity in [2] and in experiment [3] were 99.3% and 49.3%, respectively. In addition, the IC50 in experiment [4] is greater than 1000 nM. The inhibition was greater than 50% in experiment [7] and 50% in experiment [9].
`CC(=O)N(O)C/C=C/c1cccc(Oc2ccccc2)c1` came in with an inhibition in experiment [10] greater than 70%.
On to `CC(C)Cc1ccc(C(C)c2nc3cc(CCC(=O)O)ccc3n2Cc2ccccc2Cl)cc1` (stereo not given), for which the Activity in experiment [2] came out at 32.1%; in experiment [3], 0%. Besides, the IC50 in experiment [4] was determined as 50 nM; in [11] it was 70 nM; in experiment [12], 60 nM; in experiment [13], 30 nM. Also, the inhibition in experiment [14] is 26%; in experiment [7] it was greater than 50%.
